# What was measured:
# [1] = test system: rat sodium dextran sulfate (DSS) induced ulcerative colitis model; test: rat sodium dextran sulfate (DSS) induced ulcerative colitis model; type: in vivo; conditions: DSS rats
# Source text: As an ulcerative colitis model, trinitrobenzenesulfonic acid (TNB) is usually used, but as a drug effect evaluation system to accomplish the present invention, a rat sodium dextran sulfate (DSS) induced ulcerative colitis model was used. It has been well known that said model is considered as an experimental model similar to human ulcerative colitis from many viewpoints such as inhibision of weight gain, presence or absence of bloody stool, symptoms of e.g. anemia and formation of erosion at the large intestine, and no formation of lesion in the small intestine [FOLIA PHARMACOLOGICA JAPONICA vol. 105, p. 145-152(1995)]. A therapeutic effect of N-(2-ethylsulfonylamino-5-trifluoromethyl-3-pyridyl)cyclohexanecarboxamide sodium salt monohydrate (hereinafter referred to as compound 1) over the test system was examined.
# The compound 1 was used as a drug formulation. The formulation composition (content per one vial) was as follows.
# A 3% aqueous solution of sodium dextran sulfate (DSS: manufactured by Wako Pure Chemical Industries, Ltd.) was put in a drinking bottle, and rats [Crj: CD(SD), male, Charles River Japan, 7 weeks old when subjected to the test] were made to drink the solution freely for 11 days to cause colitis. After eleven days, rats which satisfied selection standards (among rats which discharged bloody stool continuously for at least two days including the selection day, ones having a weight loss at the selection day of less than 20 g as compared with the weight on the previous day and having a hemoglobin concentration of at least 12 g/dl) were selected, and divided into groups (ten rats/group) so that there would be no difference in the average weight among groups.
# With respect to a non-treated group and groups treated with the compound 1, the 3% aqueous solution was changed to a 1% DSS aqueous solution at the day of division, and the rats were made to drink the solution freely for 14 days. Further, to the rats in the groups treated with the compound 1, the compound 1 was perorally administered once a day for 14 days from the day of division by means of a peroral sonde (dosage: 10 ml/kg). To the rats in the non-treated group and a normal group, distilled water for injection (manufactured by Otsuka Pharmaceutical Co., Ltd.) alone was perorally administered similarly. Here, the normal group rats were made to drink distilled water for injection freely instead of the DSS aqueous solution from initiation of the test to the day of anatomy.
# A 10 mg/ml aqueous solution of the compound 1 was prepared by using distilled water for injection (manufactured by Otsuka Pharmaceutical Co., Ltd.) and administered to the rats in a desired dosage.
# Immediately after collection of blood, the large intestine (colon and rectum) was excised, and its length was measured by means of a ruler in a sufficiently relaxed state.
# Immediately after the measurement, a fixing liquid was injected into the intestine, and the intestine was temporarily fixed for at least 1 hour in such a state that the lumen was approximately uniformly expanded. Then, the intestinal canal was dissected along the mesenterium adhered portion, and the intestine was completely fixed in an expanded state in a 10% neutral buffering formalin aqueous solution for at least one week. The intestine was washed with running water for about 5 minutes, and further washed with purified water three times, and then immersed in a 3% aqueous acetic acid solution for about 5 minutes as a pretreatment. Then, the intestine was immersed in a 1% Alcian blue (manufactured by Nacalai Tesque) (dissolved in a 3% aqueous acetic acid solution) and dyed for about 20 minutes, and then washed with a 3% aqueous acetic acid solution from 4 to 5 times until elution of Alcian blue disappeared. […]
# [2] = test system: TNBS induced rat Crohn's disease model; test: Trinitrobenzene Sulfonic Acid (TNBS) induced rat Crohn's disease model; type: in vivo; conditions: TNBS rats
# Protocol: The therapeutic effect of the compound 1 on TNBS induced rat Crohn's disease model was studied by the following method.
# (1) SD male rats (12 weeks old) were anesthetized with Nembutal and their abdomen was opened up, a TNBS solution (TNBS 160 mg/ml ethanol) was administered in 1 ml/kg in the colon located 10 cm below the ileocecum, and their abdomen was closed to prepare models, which were divided into a non-treated group and a group treated with the compound 1, each group consisting of 6 rats. No such a treatment was carried out for normal group rats. After preparation of the models, a drug formulation of the compound 1 of Test Example 1 diluted with distilled water was perorally administered to rats of the group treated with the compound 1 once a day for 7 days in a dosage of 10 mg/kg/day as calculated as anhydride of the compound 1. After completion of administration period, visual change, small intestine weight and mucosal myeloperoxidase activity in small intestine (mucosal MPO activity) were observed or measured. The visual change was evaluated by digitizing and compiling various changes. The ratio of the small intestine weight to the body weight was also calculated from the small intestine weight and the body weight.
smiles,measurement,setting,value
"CCS(=O)(=O)Nc1ncc(C(F)(F)F)cc1NC(=O)C1CCCCC1.O.[Na] [compound 1, N-(2-ethylsulfonylamino-5-trifluoromethyl-3-pyridyl)cyclohexanecarboxamide sodium salt monohydrate]",Erosion suppression rate (large intestine erosion area vs non-treated group),[1]; 1 mg/kg/day perorally once a day for 14 days,45%
same,Erosion suppression rate (large intestine erosion area vs non-treated group),[1]; 10 mg/kg/day perorally once a day for 14 days,56%
same,Erosion suppression rate (large intestine erosion area vs non-treated group),[1]; 100 mg/kg/day perorally once a day for 14 days,62%
same,Anemia as a result of melena due to the erosion,[1]; peroral 14 days,decreases anemia
same,Histopathological study: inflammation at the submucosa in the erosion formed region,[1]; peroral 14 days,remarkable decrease of inflammation at the submucosa
same,Histopathological study: mucosal tissue reconstruction,[1]; peroral 14 days,normal tissue reconstruction by regeneration of the mucosa took place
same,Length of large intestine: intestine wall hyperplasia,[1]; peroral 14 days,decreases intestine wall hyperplasia
same,Inflammatory reaction and tissue impairment in the small intestine,[2]; 10 mg/kg/day perorally for 7 days,the inflammatory reaction and tissue impairment in the small intestine were decreased
same,Ratio of small intestine to body weight (Mean),"[2]; 10 mg/kg/day perorally once a day for 7 days, non-treated 0.0065, normal 0.0030",0.0042
same,Small intestine weight (Mean),"[2]; 10 mg/kg/day perorally once a day for 7 days, non-treated 2.18, normal 1.11",1.63
same,Visual score (Mean),"[2]; 10 mg/kg/day perorally once a day for 7 days, non-treated 7.8, normal 1.5",4.2
same,Mucosal MPO activity (Mean),"[2]; 10 mg/kg/day perorally once a day for 7 days, non-treated 8.93, normal 0.48",0.89

# — patent publication US6653333B2, “Remedies or preventives for digestive diseases containing diaminotrifluoromethylpyridine derivatives” (Ishihara Sangyo Kaisha, Ltd., priority 2000, dated 2003)
